Columns and labels:
Assay in all cases: relative viability (nuclei count vs DMSO), 5 days (fraction); higher = more cells survive
[1] = tested on: NCI-H1734
Method in brief: (§1)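 Each reported value is a median over duplicate plates. It expresses relative viability: treated-well nuclei count divided by vehicle-well nuclei count. Lung cancer cell lines in 1536-well plates were dosed by pin tool a day after seeding, alone with one drug or with a fixed anchor-drug dose plus five library-drug doses (not always all listed) in √10 steps, and nuclei were counted after 5 days.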

[2] = tested on: HARA
Method in brief: as §1

[3] = tested on: NCI-H1993
Method in brief: as §1

[4] = tested on: NCI-H647
Method in brief: as §1

[5] = tested on: UMC-11
Method in brief: as §1

[6] = tested on: NCI-H1395
Method in brief: as §1

[7] = tested on: NCI-H2228
Method in brief: as §1

[8] = tested on: COR-L 105
Method in brief: as §1

[9] = tested on: NCI-H2347
Method in brief: as §1

[10] = tested on: HCC-15
Method in brief: as §1

[11] = tested on: NCI-H1355
Method in brief: as §1

[12] = tested on: NCI-H1792
Method in brief: as §1

[13] = tested on: NCI-H838
Method in brief: as §1

[14] = tested on: SK-MES-1
Method in brief: as §1

[15] = tested on: NCI-H358
Method in brief: as §1

[16] = tested on: NCI-H1793
Method in brief: as §1

[17] = tested on: NCI-H1755
Method in brief: as §1

[18] = tested on: NCI-H2009
Method in brief: as §1

[19] = tested on: HOP-62
Method in brief: as §1

[20] = tested on: COR-L23
Method in brief: as §1

CC(=O)O[C@@]12CO[C@@H]1C[C@H](O)[C@@]1(C)C(=O)[C@H](O)C3=C(C)[C@@H](OC(=O)[C@H](O)[C@@H](NC(=O)OC(C)(C)C)c4ccccc4)C[C@@](O)([C@@H](OC(=O)c4ccccc4)[C@H]21)C3(C)C [Docetaxel] + C[C@]1(O)C[C@@H](c2nc(-c3ccc4ccc(-c5ccccc5)nc4c3)c3c(N)nccn32)C1 [Linsitinib] (partner 1 µM)
relative viability ([1]; first compound 0.0002 µM): 0.918
relative viability ([1]; first compound 0.000632 µM): 0.825
relative viability ([1]; first compound 0.002 µM): 0.516
relative viability ([1]; first compound 0.006325 µM): 0.373
relative viability ([1]; first compound 0.02 µM): 0.235
relative viability ([2]; first compound 0.0002 µM): 0.739
relative viability ([2]; first compound 0.000632 µM): 0.482
relative viability ([2]; first compound 0.002 µM): 0.235
relative viability ([2]; first compound 0.006325 µM): 0.0978
relative viability ([2]; first compound 0.02 µM): 0.0632
relative viability ([3]; first compound 0.0002 µM): 0.796
relative viability ([3]; first compound 0.000632 µM): 0.739
relative viability ([3]; first compound 0.002 µM): 0.807
relative viability ([3]; first compound 0.006325 µM): 0.605
relative viability ([3]; first compound 0.02 µM): 0.488
relative viability ([4]; first compound 0.0002 µM): 0.966
relative viability ([4]; first compound 0.000632 µM): 0.623
relative viability ([4]; first compound 0.002 µM): 0.123
relative viability ([4]; first compound 0.006325 µM): 0.102
relative viability ([4]; first compound 0.02 µM): 0.082
relative viability ([5]; first compound 0.0002 µM): 0.982
relative viability ([5]; first compound 0.000632 µM): 0.905
relative viability ([5]; first compound 0.002 µM): 0.278
relative viability ([5]; first compound 0.006325 µM): 0.237
relative viability ([5]; first compound 0.02 µM): 0.183
relative viability ([6]; first compound 0.0002 µM): 1.05
relative viability ([6]; first compound 0.000632 µM): 1.19
relative viability ([6]; first compound 0.002 µM): 0.787
relative viability ([6]; first compound 0.006325 µM): 0.431
relative viability ([6]; first compound 0.02 µM): 0.336
relative viability ([7]; first compound 0.0002 µM): 0.326
relative viability ([7]; first compound 0.000632 µM): 0.197
relative viability ([7]; first compound 0.002 µM): 0.173
relative viability ([7]; first compound 0.006325 µM): 0.155
relative viability ([7]; first compound 0.02 µM): 0.129
relative viability ([8]; first compound 0.0002 µM): 0.899
relative viability ([8]; first compound 0.000632 µM): 0.757
relative viability ([8]; first compound 0.002 µM): 0.395
relative viability ([8]; first compound 0.006325 µM): 0.362
relative viability ([8]; first compound 0.02 µM): 0.288
relative viability ([9]; first compound 0.0002 µM): 0.946
relative viability ([9]; first compound 0.000632 µM): 0.926
relative viability ([9]; first compound 0.002 µM): 0.839
relative viability ([9]; first compound 0.006325 µM): 0.622
relative viability ([9]; first compound 0.02 µM): 0.517
relative viability ([10]; first compound 0.0002 µM): 0.765
relative viability ([10]; first compound 0.000632 µM): 0.479
relative viability ([10]; first compound 0.002 µM): 0.227
relative viability ([10]; first compound 0.006325 µM): 0.244
relative viability ([10]; first compound 0.02 µM): 0.162
relative viability ([11]; first compound 0.0002 µM): 0.75
relative viability ([11]; first compound 0.000632 µM): 0.771
relative viability ([11]; first compound 0.002 µM): 0.467
relative viability ([11]; first compound 0.006325 µM): 0.297
relative viability ([11]; first compound 0.02 µM): 0.188
relative viability ([12]; first compound 0.0002 µM): 0.539
relative viability ([12]; first compound 0.000632 µM): 0.509
relative viability ([12]; first compound 0.002 µM): 0.379
relative viability ([12]; first compound 0.02 µM): 0.0833
relative viability ([13]; first compound 0.0002 µM): 0.98
relative viability ([13]; first compound 0.000632 µM): 1.1
relative viability ([13]; first compound 0.002 µM): 0.247
relative viability ([13]; first compound 0.006325 µM): 0.166
relative viability ([13]; first compound 0.02 µM): 0.145
relative viability ([14]; first compound 0.0002 µM): 1.05
relative viability ([14]; first compound 0.000632 µM): 0.967
relative viability ([14]; first compound 0.002 µM): 0.634
relative viability ([14]; first compound 0.006325 µM): 0.26
relative viability ([14]; first compound 0.02 µM): 0.177
relative viability ([15]; first compound 0.0002 µM): 0.63
relative viability ([15]; first compound 0.000632 µM): 0.371
relative viability ([15]; first compound 0.002 µM): 0.206
relative viability ([15]; first compound 0.02 µM): 0.136
relative viability ([16]; first compound 0.0002 µM): 1.01
relative viability ([16]; first compound 0.000632 µM): 0.939
relative viability ([16]; first compound 0.002 µM): 0.666
relative viability ([16]; first compound 0.006325 µM): 0.352
relative viability ([16]; first compound 0.02 µM): 0.218
relative viability ([17]; first compound 0.0002 µM): 0.948
relative viability ([17]; first compound 0.000632 µM): 0.971
relative viability ([17]; first compound 0.002 µM): 0.48
relative viability ([17]; first compound 0.006325 µM): 0.384
relative viability ([17]; first compound 0.02 µM): 0.302
relative viability ([18]; first compound 0.0002 µM): 1.15
relative viability ([18]; first compound 0.000632 µM): 1.18
relative viability ([18]; first compound 0.002 µM): 0.77
relative viability ([18]; first compound 0.006325 µM): 0.522
relative viability ([18]; first compound 0.02 µM): 0.187
relative viability ([19]; first compound 0.0002 µM): 1.18
relative viability ([19]; first compound 0.000632 µM): 0.672
relative viability ([19]; first compound 0.02 µM): 0.128
relative viability ([20]; first compound 0.0002 µM): 0.813
relative viability ([20]; first compound 0.000632 µM): 0.722
relative viability ([20]; first compound 0.002 µM): 0.259
relative viability ([20]; first compound 0.006325 µM): 0.101
relative viability ([20]; first compound 0.02 µM): 0.0798
